The record followed here is US20070060599A1, “Crystalline forms of [1S-(1alpha, 3alpha, 4beta)]-2-amino-1,9-dihydro-9-[4-hydroxy-3-(hydroxymethyl)-2-methylenecyclopentyl]-6H-purin-6-one” (priority 2005, published 2007).

Molecules are shown by their SMILES.

This data set concerns hepatitis B virus infection. Nature of the data set: once daily administration of low dose entecavir pharmaceutical compositions to treat hepatitis B virus infection. It counts as in vivo, human. How it is done:
In a yet another aspect, the invention provides pharmaceutical compositions comprising Form N-2 and/or Form IP.3-4 crystals of [1S-(1α,3α,4β)]-2-amino-1,9-dihydro-9-[4-hydroxy-3-(hydroxymethyl)-2-methylenecyclopentyl]-6H-purin-6-one and at least one pharmaceutically acceptable carrier or excipient. The pharmaceutical compositions may contain a low dose of from about 0.001 mg to about 25 mg of the active drug ingredient for once daily administration to treat hepatitis B virus infection in an adult human patient or a pediatric patient. Preferred pharmaceutical compositions contain from about 0.01 mg to about 10 mg of the active drug ingredient and most preferred pharmaceutical compositions contain from about 0.01 to about 5 mg of the active drug ingredient. Such preferred and most preferred pharmaceutical compositions are also administered once daily to treat hepatitis B virus infection in an adult or a pediatric patient.

Consider `C=C1[C@H](CO)[C@@H](O)C[C@@H]1n1cnc2c(=O)[nH]c(N)nc21` [entecavir, [1S-(1α,3α,4β)]-2-amino-1,9-dihydro-9-[4-hydroxy-3-(hydroxymethyl)-2-methylenecyclopentyl]-6H-purin-6-one monohydrate], for which the “effectiveness in treating hepatitis B virus infection” value is given as “effective”. For the same molecule, the undesirable side effects entry (compared with the high dose regimen of U.S. Pat. No. 5,206,244) is listed as “without undesirable side effects”.
